We go through two compounds from US8632815B2 (Laila Pharmaceutical Pvt., Ltd., priority 2008, dated 2014).

Series [1] relates to selenite-induced cataract in Wistar rat pups. Put plainly: In vivo anti-cataract efficacy, selenite-induced cataract. The method, then:
Animals were grouped into Group I (control), Group II (sodium selenite) and Group III (treatment).
Two hours later Sodium Selenite (25 μM/kg·bw of 5 ml/kg·bw) was injected subcutaneously to both group II and III animals, thereafter 5 μl of LP002-09 was instilled topically to the eyes of group III animals only.
All animals were observed individually through out the observation period for any clinical signs and mortality. On the examination day i.e. when the pups first opened their eyes, the development of cataract was observed by the presence or absence of opacity by dilating the pupil with 0.8% tropicamide.
The cataract was scored on a scale of 0 to 4 according to procedure described by Muranov et al., (2004). Grade 0 was a normal clear lens, Grade 1 was a subcapsular opacity; Grade 2 was nuclear cataract, Grade 3 was strong nuclear cataract; Grade 4 was dense opacity involving entire lens and the results have been presented in below table 1

The nature of series [2]: Particle size distribution, Malvern particle size analyzer. Particulars: laser diffraction. The class given is physicochemical. The method, then:
The study was conducted using Malvern particle size analyzer. The map of scattering intensity versus angle is the primary source of information used to calculate the particle size. The scattering of particles is accurately predicted by the Mie scattering model allowing accurate sizing across the widest possible dynamic range. During the laser diffraction measurement, particles are passed through a focused laser beam. These particles scatter light at an angle that is inversely proportional to their size. The angular intensity of the scattered light is then measured by a series of photosensitive detectors. The advantage of this study is that there is no sample preparation involved.
This is a clear indication that the process of nanoemulsification followed has effectively transformed the large sized particles to nanosized coated curcuminoid particles. Additional peaks can be observed which is contributed by the high molecular weight excipients used to prepare the formulation.

Setting [3] is: of 20 eyes, rat pups, sodium selenite s.c.

The structures appear in SMILES notation.

Consider `O=[Se](O)O` [Sodium Selenite], for which the “Total Percentage of cataract” value in series [1] (20 eyes, rat pups) is listed as 100%. The “Grade (Mean ± S.D.)” value in series [1] (cataract scale 0 to 4, LP002-09 P < 0.0001 vs. Sodium Selenite treated) was 3.6 ± 0.68. In series [1] (setting [3]), the “Dense opacity involving entire lens, Score 4 (number of eyes)” value was determined as 14; the “No Opacity, Score 0 (number of eyes)” value came to 0; the “Nuclear cataract, Score 2 (number of eyes)” value is given as 2; the “Strong Nuclear cataract, Score 3 (number of eyes)” value was found to be 4. Moreover, the “Subcapsular opacity, Score 1 (number of eyes)” value in series [1] (setting [3]) is 0. Also, in series [1] (percent of eyes), the “eyes with dense opacity type cataract” value is on record as 70%, the “eyes with nuclear cataract” value amounted to 10% and the “eyes with strong nuclear cataract” value is listed as 20%.

In the case of `COc1cc(/C=C/C(=O)CC(=O)/C=C/c2ccc(O)c(OC)c2)ccc1O` [unformulated curcumin 98%, Curcumin], the particle size worked out at 373 nm in series [2] and 374 nm in series [2] (listed as curcumin).
